{"source": "patent US12220400B2", "about": "“Amino acid compositions and methods for treating cystic fibrosis” (UNIVERSITY OF FLORIDA RESEARCH FOUNDATION, INCORPORATED, priority 2018, dated 2025)", "system": "HBEC-F508del", "assay": "Transepithelial short-circuit anion current in HBEC-F508del, Example 3", "format": "cell-based, human", "procedure": "Methods: Transepithelial short-circuit current and ^36Cl net flux (Jnet) were measured in differentiated HBEC-F508del bathed in vehicle (no AA), AA test formulation (CF5AA-3) or AA negative control (NC; CF4AA-3) in Ussing chambers. Cells were treated with C18 (VX809-analogue), VX661 or DMSO for 24 hours. After blocking ENaC with benzamil, chloride secretion was stimulated using GLPG1837 (VX770-analogue) with or without forskolin. CFTRinh-172, CaCCinh-A01 or bumetanide were added to distinguish CFTR-, TMEM16A- and NKCC1-sensitive chloride currents, respectively. Western blot was performed on HBEC-F508del membrane fractions to determine apical CFTR expression.", "data": [{"compound": "CC(C)(CO)c1cc2cc(NC(=O)C3(c4ccc5c(c4)OC(F)(F)O5)CC3)c(F)cc2n1C[C@@H](O)CO", "note": "[VX661, tezacaftor]", "values": [{"measurement": "basal anion current", "setting": "corrector pretreatment 24 hours, cells bathed in vehicle (no AA)", "result": "1.5±0.2", "unit": "μA"}, {"measurement": "peak anion current after stimulation with forskolin and GLPG1837", "setting": "forskolin and GLPG1837", "result": "7.9±0.7", "unit": "μA"}]}]}
